Reference: US9655363B2, “Microbiocides” (Syngenta Participations AG, priority 2013, dated 2017)

Key:
[1] = system: Mycosphaerella Graminicola (Septoria Tritici); assay: Mycosphaerella graminicola (Septoria tritici) / liquid culture (Septoria blotch); type: cell-based; conditions: Zymoseptoria tritici, liquid culture (PDB), growth inhibition photometrically 4-5 days after application, read-out: disease control
Experimental: Fungicidal Activity Against Mycosphaerella Graminicola (Septoria Tritici)/Liquid Culture (Septoria Blotch) Conidia of the fungus from cryogenic storage were directly mixed into nutrient broth (PDB potato dextrose broth). After placing a (DMSO) solution of test compound into a microtiter plate (96-well format), the nutrient broth containing the fungal spores was added. The test plates were incubated at 24° C. and the inhibition of growth was determined photometrically 4-5 days after application.

[2] = system: Mycosphaerella Arachidis (Cercospora Arachidicola); assay: Mycosphaerella arachidis (Cercospora arachidicola) / liquid culture (early leaf spot); type: cell-based; conditions: liquid culture (PDB), growth inhibition photometrically 4-5 days after application, read-out: disease control
Experimental: Fungicidal Activity Against Mycosphaerella Arachidis (Cercospora Arachidicola)/Liquid Culture (Early Leaf Spot) Conidia of the fungus from cryogenic storage were directly mixed into nutrient broth (PDB potato dextrose broth). After placing a (DMSO) solution of test compound into a microtiter plate (96-well format), the nutrient broth containing the fungal spores was added. The test plates were incubated at 24° C. and the inhibition of growth was determined photometrically 4-5 days after application.

[3] = system: Thanatephorus Cucumeris (Rhizoctonia Solani); assay: Thanatephorus cucumeris (Rhizoctonia solani) / liquid culture (foot rot, damping-off); type: cell-based; conditions: liquid culture (PDB), growth inhibition photometrically 3-4 days after application, read-out: disease control
Experimental: Fungicidal Activity Against Thanatephorus Cucumeris (Rhizoctonia Solani)/Liquid Culture (Foot Rot, Damping-Off) Mycelia fragments of a newly grown liquid culture of the fungus were directly mixed into nutrient broth (PDB potato dextrose broth). After placing a (DMSO) solution of the test compounds into a microtiter plate (96-well format), the nutrient broth containing the fungal material was added. The test plates were incubated at 24° C. and the inhibition of growth was determined photometrically 3-4 days after application. Compounds (from table T1) 1, 2, 4, 7, 8, 10, 11, 13, 14 and 17 at 200 ppm give at least 80% disease control in this test when compared to untreated control leaf disks under the same conditions, which show extensive disease development.

[4] = system: Blumeria Graminis f. sp. Tritici (Erysiphe Graminis f. sp. Tritici); assay: Blumeria graminis f. sp. tritici / wheat / leaf disc preventative (powdery mildew on wheat); type: in vivo; conditions: foliar, wheat leaf disc cv. Kanzler, compared to untreated, 6-8 days after application, read-out: disease control
Experimental: Fungicidal Activity Against Blumeria Graminis f. sp. Tritici (Erysiphe Graminis f. sp. Tritici)/Wheat/Leaf Disc Preventative (Powdery Mildew on Wheat) Wheat leaf segments cv. Kanzler were placed on agar in a multiwell plate (24-well format) and sprayed with the formulated test compound diluted in water. The leaf disks were inoculated by shaking powdery mildew infected plants above the test plates 1 day after application. The inoculated leaf disks were incubated at 20° C. and 60% rh under a light regime of 24 h darkness followed by 12 h light/12 h darkness in a climate chamber and the activity of a compound was assessed as percent disease control compared to untreated when an appropriate level of disease damage appears on untreated check leaf segments (6-8 days after application).

[5] = system: Puccinia Recondita f. sp. Tritici; assay: Puccinia recondita f. sp. tritici / wheat / leaf disc curative (brown rust); type: in vivo; conditions: foliar, 192 h, compared to untreated, 8 days after inoculation, read-out: disease control
Experimental: Fungicidal Activity Against Puccinia Recondita f. sp. Tritici/Wheat/Leaf Disc Curative (Brown Rust) Wheat leaf segments are placed on agar in multiwell plates (24-well format). The leaf disks are then inoculated with a spore suspension of the fungus. One day after inoculation the test solution is applied. After appropriate incubation the activity of a compound is assessed 8 dpi (days after inoculation) as curative fungicidal activity. Dose range: 200-22 ppm.

[6] = system: Puccinia Recondita f. sp. Tritici; assay: Puccinia recondita f. sp. tritici / wheat / leaf disc preventative (brown rust); type: in vivo; conditions: foliar, wheat leaf disc cv. Kanzler, compared to untreated, 7-9 days after application, read-out: disease control
Experimental: Fungicidal Activity Against Puccinia Recondita f. sp. Tritici/Wheat/Leaf Disc Preventative (Brown Rust) Wheat leaf segments cv. Kanzler were placed on agar in multiwell plates (24-well format) and sprayed with the formulated test compound diluted in water. The leaf disks were inoculated with a spore suspension of the fungus 1 day after application. The inoculated leaf segments were incubated at 19° C. and 75% rh under a light regime of 12 h light/12 h darkness in a climate cabinet and the activity of a compound was assessed as percent disease control compared to untreated when an appropriate level of disease damage appears in untreated check leaf segments (7-9 days after application).

OC(Cn1cncn1)(c1ccc(Cl)cc1)C1(c2ccccn2)CC1 (stereo not shown) [Compound 1, 1-(4-chlorophenyl)-1-[1-(2-pyridyl)cyclopropyl]-2-(1,2,4-triazol-1-yl)ethanol]
≥ 80%: inhibition of growth at 200 ppm [1] | inhibition of growth at 200 ppm [2] | inhibition of growth at 200 ppm [3] | pest or weed control at 200 ppm [4] | pest or weed control at 200 ppm [5] | pest or weed control at 200 ppm [6]

OC(Cn1cncn1)(c1ccc(F)cc1)C1(c2ncc(Br)cc2Cl)CC1 (stereo not shown) [Compound 2, 1-[1-(5-bromo-3-chloro-2-pyridyl)cyclopropyl]-1-(4-fluorophenyl)-2-(1,2,4-triazol-1-yl)ethanol]
≥ 80%: inhibition of growth at 200 ppm [1] | inhibition of growth at 200 ppm [2] | inhibition of growth at 200 ppm [3] | pest or weed control at 200 ppm [4] | pest or weed control at 200 ppm [5] | pest or weed control at 200 ppm [6]

OC(Cn1ccnc1)(c1ccc(F)cc1)C1(c2ccc(Br)cn2)CC1 (stereo not shown) [Compound 3, 1-[1-(5-bromo-2-pyridyl)cyclopropyl]-1-(4-fluorophenyl)-2-imidazol-1-yl-ethanol]
≥ 80%: pest or weed control at 200 ppm [4] | pest or weed control at 200 ppm [5] | pest or weed control at 200 ppm [6]

OC(Cn1cncn1)(c1ccc(F)cc1)C1(c2ccc(Br)cn2)CC1 (stereo not shown) [Compound 4, 1-[1-(5-bromo-2-pyridyl)cyclopropyl]-1-(4-fluorophenyl)-2-(1,2,4-triazol-1-yl)ethanol]
≥ 80%: inhibition of growth at 200 ppm [2] | inhibition of growth at 200 ppm [3] | pest or weed control at 200 ppm [4] | pest or weed control at 200 ppm [5] | pest or weed control at 200 ppm [6]

OC(Cn1ccnc1)(c1ccc(F)cc1)C1(c2ncc(Br)cc2Cl)CC1 (stereo not shown) [Compound 5, 1-[1-(5-bromo-3-chloro-2-pyridyl)cyclopropyl]-1-(4-fluorophenyl)-2-imidazol-1-yl-ethanol]
≥ 80%: pest or weed control at 200 ppm [4] | pest or weed control at 200 ppm [5] | pest or weed control at 200 ppm [6]

OC(Cn1cncn1)(c1ccc(F)cc1)C1(c2ccc(Br)c(-c3ccc(F)cc3)n2)CC1 (stereo not shown) [Compound 6, 1-[1-[5-bromo-6-(4-fluorophenyl)-2-pyridyl]cyclopropyl]-1-(4-fluorophenyl)-2-(1,2,4-triazol-1-yl)ethanol]
≥ 80%: inhibition of growth at 200 ppm [2] | pest or weed control at 200 ppm [4] | pest or weed control at 200 ppm [5] | pest or weed control at 200 ppm [6]

OC(Cn1cncn1)(c1ccc(F)cc1)C1(c2ccc(C3CC3)cn2)CC1 (stereo not shown) [Compound 7, 1-[1-(5-cyclopropyl-2-pyridyl)cyclopropyl]-1-(4-fluorophenyl)-2-(1,2,4-triazol-1-yl)ethanol]
≥ 80%: inhibition of growth at 200 ppm [1] | inhibition of growth at 200 ppm [2] | inhibition of growth at 200 ppm [3] | pest or weed control at 200 ppm [4] | pest or weed control at 200 ppm [5] | pest or weed control at 200 ppm [6]

N#Cc1ccc(-c2ccc(C3(C(O)(Cn4cncn4)c4ccc(F)cc4)CC3)nc2)cc1 (stereo not shown) [Compound 8, 4-[6-[1-[1-(4-fluorophenyl)-1-hydroxy-2-(1,2,4-triazol-1-yl)ethyl]cyclopropyl]-3-pyridyl]benzonitrile]
≥ 80%: inhibition of growth at 200 ppm [1] | inhibition of growth at 200 ppm [2] | inhibition of growth at 200 ppm [3] | pest or weed control at 200 ppm [4] | pest or weed control at 200 ppm [5] | pest or weed control at 200 ppm [6]

OC(Cn1cncn1)(c1ccc(F)cc1)C1(c2ccc(Cl)nc2)CC1 (stereo not shown) [Compound 9, 1-[1-(6-chloro-3-pyridyl)cyclopropyl]-1-(4-fluorophenyl)-2-(1,2,4-triazol-1-yl)ethanol]
≥ 80%: inhibition of growth at 200 ppm [1] | inhibition of growth at 200 ppm [2] | pest or weed control at 200 ppm [4] | pest or weed control at 200 ppm [5] | pest or weed control at 200 ppm [6]

OC(Cn1cncn1)(c1ccc(F)cc1)C1(c2ccccn2)CC1 (stereo not shown) [Compound 10, 1-(4-fluorophenyl)-1-[1-(2-pyridyl)cyclopropyl]-2-(1,2,4-triazol-1-yl)ethanol]
≥ 80%: inhibition of growth at 200 ppm [1] | inhibition of growth at 200 ppm [2] | inhibition of growth at 200 ppm [3] | pest or weed control at 200 ppm [4] | pest or weed control at 200 ppm [5] | pest or weed control at 200 ppm [6]

OC(Cn1cncn1)(c1ccc(Cl)cc1)C1(c2ccc(Cl)cn2)CC1 (stereo not shown) [Compound 11, 1-(4-chlorophenyl)-1-[1-(5-chloro-2-pyridyl)cyclopropyl]-2-(1,2,4-triazol-1-yl)ethanol]
≥ 80%: inhibition of growth at 200 ppm [1] | inhibition of growth at 200 ppm [2] | inhibition of growth at 200 ppm [3] | pest or weed control at 200 ppm [4] | pest or weed control at 200 ppm [5] | pest or weed control at 200 ppm [6]

N#Cc1ccc(C2(C(O)(Cn3cncn3)c3ccc(F)cc3)CC2)nc1 (stereo not shown) [Compound 12, 6-[1-[1-(4-fluorophenyl)-1-hydroxy-2-(1,2,4-triazol-1-yl)ethyl]cyclopropyl]pyridine-3-carbonitrile]
≥ 80%: inhibition of growth at 200 ppm [1] | pest or weed control at 200 ppm [4] | pest or weed control at 200 ppm [5] | pest or weed control at 200 ppm [6]

OC(Cn1cncn1)(c1ccc(Cl)cc1)C1(c2ccccn2)CCCC1 (stereo not shown) [Compound 15, 1-(4-chlorophenyl)-1-[1-(2-pyridyl)cyclopentyl]-2-(1,2,4-triazol-1-yl)ethanol]
≥ 80%: inhibition of growth at 200 ppm [1] | inhibition of growth at 200 ppm [2] | pest or weed control at 200 ppm [4] | pest or weed control at 200 ppm [5] | pest or weed control at 200 ppm [6]

OC(Cn1cncn1)(c1ccc(Cl)cc1)C1(c2ccc(Cl)cn2)CCC1 (stereo not shown) [Compound 16, 1-(4-chlorophenyl)-1-[1-(5-chloro-2-pyridyl)cyclobutyl]-2-(1,2,4-triazol-1-yl)ethanol]
≥ 80%: inhibition of growth at 200 ppm [1] | inhibition of growth at 200 ppm [2] | pest or weed control at 200 ppm [4] | pest or weed control at 200 ppm [5] | pest or weed control at 200 ppm [6]

OC(Cn1cncn1)(c1ccc(F)cc1)C1(c2ccc(-c3cccc(OC(F)(F)F)c3)cn2)CCC1 (stereo not shown) [Compound 18, 1-(4-fluorophenyl)-2-(1,2,4-triazol-1-yl)-1-[1-[5-[3-(trifluoromethoxy)phenyl]-2-pyridyl]cyclobutyl]ethanol]
≥ 80%: inhibition of growth at 200 ppm [1] | inhibition of growth at 200 ppm [2] | pest or weed control at 200 ppm [4]

OC(Cn1cncn1)(c1ccc(F)cc1)C1(c2ccc(-c3ccc(Cl)cc3F)cn2)CCC1 (stereo not shown) [Compound 19, 1-[1-[5-(4-chloro-2-fluoro-phenyl)-2-pyridyl]cyclobutyl]-1-(4-fluorophenyl)-2-(1,2,4-triazol-1-yl)ethanol]
≥ 80%: inhibition of growth at 200 ppm [1] | inhibition of growth at 200 ppm [2] | pest or weed control at 200 ppm [4]
